“And” between values parts separate entries of the source, which are not always exact repeats. Equal entries are not always repeated. After the bases stand the sugars from the 5' end (letter, count) and the backbone: PS all phosphorothioate, else s phosphorothioate and o phosphodiester by linkage. Methylation of C is not given here. e = 2'-O-(2-methoxyethyl) (MOE); k = constrained ethyl (cEt); d = 2'-deoxy (DNA)
Molecular target: KRAS
Settings: ASO

## TTAGTGATTAGGTCAA (sugars k3 d10 k3, PS)
A431, 0.185 µM
  target mRNA inhibition: 32%
A431, 0.556 µM
  target mRNA inhibition: 56%
A431, 1.667 µM
  target mRNA inhibition: 68%
A431, 2 µM
  target mRNA inhibition: 59% and 51% and 52%
A431, 5 µM
  target mRNA inhibition: 82%

## GATTTGTCAGCAGGAC (sugars kddddddddddkekek, PS)
A431, 0.185 µM
  target mRNA inhibition: 16%
A431, 0.556 µM
  target mRNA inhibition: 46%
A431, 1.667 µM
  target mRNA inhibition: 62%
A431, 2 µM
  target mRNA inhibition: 57%
A431, 5 µM
  target mRNA inhibition: 78%

## CATTTATGTGACTAGA (sugars kkddddddddkekekk, PS)
A431, 2 µM
  target mRNA inhibition: 20%

## GGTGAATATCTTCAAA (sugars k3 d10 k3, PS)
A431, 2 µM
  target mRNA inhibition: 28%

## TGATTTGTCAGCAGGA (sugars kdddddddddkekeke, PS)
A431, 2 µM
  target mRNA inhibition: 32%

## ACCAGTGTTAAGAGAA (sugars k3 d9 k3 e1, PS)
A431, 2 µM
  target mRNA inhibition: 44%

## ACCAGTGTTAAGAGAA (sugars k3 d10 k3, PS)
A431, 0.185 µM
  target mRNA inhibition: 5% and 3%
A431, 0.556 µM
  target mRNA inhibition: 39% and 19%
A431, 1.667 µM
  target mRNA inhibition: 59% and 43%
A431, 2 µM
  target mRNA inhibition: 60%
A431, 5 µM
  target mRNA inhibition: 72% and 60%

## TGCTAATAATTTAGTG (sugars k3 d10 k3, PS)
A431, 2 µM
  target mRNA inhibition: 6%

## ATTTCTGATGTGACTC (sugars k3 d10 k3, PS)
A431, 2 µM
  target mRNA inhibition: 49%

## CATTTATGTGACTAGA (sugars k3 d10 k3, PS)
A431, 2 µM
  target mRNA inhibition: 56%

## AGGAGTCTTTATAGTA (sugars kkkddddddddkekek, PS)
A431, 2 µM
  target mRNA inhibition: 22%

## AATTGTGCAATGGTGA (sugars k3 d10 k3, PS)
A431, 2 µM
  target mRNA inhibition: 46%

## TTGTTGAGCTATCCAA (sugars k3 d10 k3, PS)
A431, 2 µM
  target mRNA inhibition: 3%

## GTCCAGTGATACTTTC (sugars kkkddddddddkdkdk, PS)
A431, 2 µM
  target mRNA inhibition: 30%

## GCAATGTTAATTTAAC (sugars k3 d10 k3, PS)
A431, 2 µM
  target mRNA inhibition: 17%

## ATGCTGTGAAACTCTC (sugars kdddddddddkekeke, PS)
A431, 2 µM
  target mRNA inhibition: 24%

## TGTATCTTGTTGAGCT (sugars k3 d10 k3, PS)
A431, 2 µM
  target mRNA inhibition: 31%

## TGGTGTAACATAGGTT (sugars kkkddddddddkekek, PS)
A431, 0.185 µM
  target mRNA inhibition: 31%
A431, 0.556 µM
  target mRNA inhibition: 53%
A431, 1.667 µM
  target mRNA inhibition: 79%
A431, 2 µM
  target mRNA inhibition: 67%
A431, 5 µM
  target mRNA inhibition: 82%

## ACCAGTGTTAAGAGAA (sugars kkdddddddddkekek, PS)
A431, 2 µM
  target mRNA inhibition: 49%

## GTCCAGTGATACTTTC (sugars k3 d10 k3, PS)
A431, 2 µM
  target mRNA inhibition: 44%

## GAGTCTTTATAGTAAT (sugars kddddddddddkekek, PS)
A431, 2 µM
  target mRNA inhibition: 11%

## GGTGTAACATAGGTTA (sugars kdddddddddkekeke, PS)
A431, 0.185 µM
  target mRNA inhibition: 1%
A431, 0.556 µM
  target mRNA inhibition: 35%
A431, 1.667 µM
  target mRNA inhibition: 56%
A431, 2 µM
  target mRNA inhibition: 57%
A431, 5 µM
  target mRNA inhibition: 71%
NCI-H460, 0.037 µM
  target mRNA inhibition: 52.2%

## ACCAGTGTTAAGAGAA (sugars kkddddddddddkeke, PS)
A431, 2 µM
  target mRNA inhibition: 42%

## TTAGTGATTAGGTCAA (sugars kkkdddddddddkeke, PS)
A431, 2 µM
  target mRNA inhibition: 32%

## AATCTTTTAATGTCAC (sugars k3 d10 k3, PS)
A431, 2 µM
  target mRNA inhibition: 44%

## TGTCTATTCATACCAG (sugars k3 d10 k3, PS)
A431, 2 µM
  target mRNA inhibition: 16%

## GATTGTGCTGAGCTTG (sugars kkkddddddddkekek, PS)
A431, 2 µM
  target mRNA inhibition: 37%

## AGGAGTCTTTATAGTA (sugars kkkddddddddkdkdk, PS)
A431, 2 µM
  target mRNA inhibition: 30%

## TTAGTGATTAGGTCAA (sugars kddddddddddkekek, PS)
A431, 2 µM
  target mRNA inhibition: 12%

## ATTAATCCATTTATGT (sugars k3 d10 k3, PS)
A431, 2 µM
  target mRNA inhibition: 3%

## AAAATTAATGTCTTGG (sugars k3 d10 k3, PS)
A431, 2 µM
  target mRNA inhibition: 12%

## ATTTGTCAGCAGGACC (sugars k3 d10 k3, PS)
A431, 2 µM
  target mRNA inhibition: 35%

## GAGGCAAGATGACACT (sugars k3 d10 k3, PS)
A431, 2 µM
  target mRNA inhibition: 0%

## AAATGCTAATAATTTA (sugars k3 d10 k3, PS)
A431, 2 µM
  target mRNA inhibition: 13%

## AATTAGTGATTAGGTC (sugars k3 d10 k3, PS)
A431, 2 µM
  target mRNA inhibition: 32%

## TTGATTTGTCAGCAGG (sugars kddddddddddkekek, PS)
A431, 2 µM
  target mRNA inhibition: 17%

## TAGTTTCACATAGCAA (sugars k3 d10 k3, PS)
A431, 2 µM
  target mRNA inhibition: 51%

## GATTTGTCAGCAGGAC (sugars kdddddddddkekeke, PS)
A431, 2 µM
  target mRNA inhibition: 32%

## CCAGTGTTAAGAGAAC (sugars kkddddddddkekekk, PS)
A431, 2 µM
  target mRNA inhibition: 53%

## AAAAAATTAATGTCTT (sugars k3 d10 k3, PS)
A431, 2 µM
  target mRNA inhibition: 9%

## GTCTATTCATACCAGG (sugars k3 d10 k3, PS)
A431, 2 µM
  target mRNA inhibition: 60%

## GGCATTGCTAGTTCAA (sugars k3 d10 k3, PS)
A431, 2 µM
  target mRNA inhibition: 43%

## ACCAGTGTTAAGAGAA (sugars kddddddddddkekek, PS)
A431, 2 µM
  target mRNA inhibition: 44%

## CATTGCTAGTTCAAAA (sugars k3 d10 k3, PS)
A431, 2 µM
  target mRNA inhibition: 9%

## AGTGTGACTCAGTTAA (sugars kkkddddddddkekek, PS)
A431, 2 µM
  target mRNA inhibition: 29%

## GCAAGATGACACTAAT (sugars k3 d10 k3, PS)
A431, 2 µM
  target mRNA inhibition: 30%

## TCTATTCATACCAGGT (sugars k3 d10 k3, PS)
A431, 2 µM
  target mRNA inhibition: 26%

## TGATTTGTCAGCAGGA (sugars kkdddddddddkdkdk, PS)
A431, 2 µM
  target mRNA inhibition: 15%

## TGCTGTGAAACTCTCT (sugars kkdddddddddkdkdk, PS)
A431, 2 µM
  target mRNA inhibition: 26%

## ATAGTTTCCATTGCCT (sugars k3 d10 k3, PS)
A431, 1.667 µM
  target mRNA inhibition: 64% and 45%
A431, 2 µM
  target mRNA inhibition: 50% and 65%
A431, 5 µM
  target mRNA inhibition: 75% and 70%

## AGTATTAACACAGAAG (sugars k3 d10 k3, PS)
A431, 2 µM
  target mRNA inhibition: 27%

## TATGCAATGTTAATTT (sugars k3 d10 k3, PS)
A431, 2 µM
  target mRNA inhibition: 8%

## CCAGTATTAACACAGA (sugars k3 d10 k3, PS)
A431, 2 µM
  target mRNA inhibition: 37%

## TGTTTATGCAATGTTA (sugars kkddddddddkekekk, PS)
A431, 0.185 µM
  target mRNA inhibition: 22%
A431, 0.556 µM
  target mRNA inhibition: 47%
A431, 1.667 µM
  target mRNA inhibition: 68%
A431, 2 µM
  target mRNA inhibition: 56%
A431, 5 µM
  target mRNA inhibition: 76%

## ATGCTGTGAAACTCTC (sugars k3 d9 k3 e1, PS)
A431, 2 µM
  target mRNA inhibition: 37%

## TTCTGATGTGACTCAG (sugars k3 d10 k3, PS)
A431, 2 µM
  target mRNA inhibition: 26%

## TTAGTGATTAGGTCAA (sugars kdddddddddkekeke, PS)
A431, 2 µM
  target mRNA inhibition: 0%

## GACTAATAGCAGTGGA (sugars k3 d10 k3, PS)
A431, 2 µM
  target mRNA inhibition: 52% and 62%

## AGGAGTCTTTATAGTA (sugars kddddddddddkekek, PS)
A431, 2 µM
  target mRNA inhibition: 31%

## ACTTTTTGACAAATGG (sugars k3 d10 k3, PS)
A431, 2 µM
  target mRNA inhibition: 46%

## CTATAATAATCCCCAT (sugars k3 d10 k3, PS)
A431, 2 µM
  target mRNA inhibition: 6%

## TCTTGATTTGTCAGCA (sugars kkddddddddddkeke, PS)
A431, 0.037 µM
  target mRNA inhibition: 84%
A431, 0.125 µM
  target mRNA inhibition: 65% and 61%
A431, 2 µM
  target mRNA inhibition: 91% and 92%
NCI-H460, 0.037 µM
  target mRNA inhibition: 67.6%

## AATCTTATGGTTAGGG (sugars k3 d10 k3, PS)
A431, 0.185 µM
  target mRNA inhibition: 2%
A431, 0.556 µM
  target mRNA inhibition: 2%
A431, 1.667 µM
  target mRNA inhibition: 35%
A431, 2 µM
  target mRNA inhibition: 45%
A431, 5 µM
  target mRNA inhibition: 52%

## TCCAGTGATACTTTCA (sugars kkdddddddddkekek, PS)
A431, 2 µM
  target mRNA inhibition: 37%

## GCTAAAACAAATGCTA (sugars k3 d10 k3, PS)
A431, 2 µM
  target mRNA inhibition: 33%

From the OligoGym collection
